“Also recorded” adds a separate entry of the source. Like-named read-outs stand apart in the source and are kept apart here.
Experiments:
EAEC strain O42 = type: cell-based, E. coli
S. sonnei = S. sonnei adherence and internalization in antibiotic-pretreated HeLa cells; type: cell-based; conditions: vs other treatment groups
ETEC strains = experiment: Isolate viability after rifaximin exposure, ETEC; type: cell-based, E coli
EAEC isolates = experiment: MMP-9 detection by gelatin zymography in EAEC isolates after rifaximin exposure; type: cell-based, E coli
Procedure: (§1) Expression of matrix metalloproteinase-9 (MMP-9) was analyzed using gelatin zymography in all viable EAEC and S. sonnei isolates growing on MacConkey agar. Isolates were suspended in 1 mL of 0.1 M phosphate buffered saline (pH 7.2) and centrifuged at 1000 g for 10 minutes at 4° C. The supernatant was subjected to gelatin zymography to detect MMP-9 activity using a modified Heussen and Dowdle protocol (9). In summary, the supernatant was diluted 1:2 in a sample buffer (125 mM Tris-HCl, pH 6.8, 20% glycerol, 4% sodium dodecyl sulfate, 0.02% bromphenol blue), and 20 μL was loaded on to a 10% SDS-PAGE gel containing 1 mg/mL gelatin. Prestained standard proteins were used as molecular weight markers. After electrophoresis, gels were rinsed with incubation buffer (2.5% triton X-100, 50 mM Tris-HCl, pH 7.4, 0.02% Brij 35, 10 mM CaCl2, 2 μM ZnCl2) for 1 hour at room temperature to remove SDS. Gels were then incubated overnight at 37° C. and subsequently stained with Coomassie brilliant blue R-250 (Thermo Fisher Scientific, Inc, Rockford, Ill.). […] Matrix metalloproteinase-9 was identified among all gelatinolytic proteins by size.

S sonnei isolate = experiment: MMP-9 detection by gelatin zymography in S sonnei isolate after rifaximin exposure; type: cell-based
Procedure: as §1

C difficile isolates [1] = conditions: cited from earlier work
C difficile isolates [2] = conditions: 201 C difficile isolates, Canada, cited from earlier work
[3] = 24 h pretreatment with 64 mg (sic; FIG. 2: 64 μg/ml)
[4] = 110 C difficile isolates, 1983 to 2004

## (2S,16Z,18E,20S,21S ,22R, 23R,24R,255,265,275,28E)-5,6,21,23,25 Pentahydroxy-27-methoxy-2,4,11,16,20,22,24,26-octamethyl-2,7-(epoxypentadeca-(1,11,13) trienimino) benzofuro (4,5-e) pyrido(1,2,-a) benzimidazole-1,15(2H)-dione,25-acetate [Rifaximin]
EAEC strain O42
  EAEC adherence to pretreated HEp-2 cells, quantified by CFU: significantly lower; also recorded: reduced EAEC adherence
EAEC strain O42; [3]
  EAEC adherence to A549 cells: significantly reduced
  EAEC adherence to HCT-8 cells: not significant
  EAEC adherence to HEp-2 cells: significantly reduced
  EAEC adherence to HeLa cells: significantly reduced
EAEC strain O42; HEp-2 cells pretreated 24 h, washed, EAEC 3 h, Wright-Giemsa staining
  EAEC O42 adherence to pretreated HEp-2 cells (microscopy, stacked-brick pattern): greatly reduced
EAEC strain O42; after 3 h incubation with pretreated HEp-2 cells
  EAEC bacterial counts in the supernatants (viability): No differences; also recorded: without affecting EAEC viability
S. sonnei
  S. sonnei attachment: no effect
  S. sonnei internalization: no effect
ETEC strains; rifaximin 8 mg/L for 24 hours
  ETEC viability: viable
ETEC strains; rifaximin 64 mg/L for 18 hours
  ETEC viability: No ETEC isolates were viable; also recorded: not viable
ETEC strains; rifaximin 8, 32, and 64 mg/L for 4 and 8 hours
  ETEC viability: viable
ETEC strains; rifaximin 8 and 32 mg/L for 18 hours
  ETEC viability: viable
ETEC strains; rifaximin 32 and 64 mg/L for 24 hours
  ETEC viability: No ETEC isolates were viable; also recorded: not viable
EAEC isolates; 18-hour time point (rifaximin 8 mg/L)
  MMP-9 expression by EAEC isolates: one EAEC isolate produced MMP-9, but the other isolate did not
EAEC isolates; rifaximin 8 mg/L for 4 and 8 hours
  MMP-9 expression by EAEC isolates: expressed MMP-9
EAEC isolates; rifaximin 8 mg/L for 24 hours
  MMP-9 expression by EAEC isolates: undetectable
EAEC isolates; rifaximin 32 or 64 mg/L for 4, 8, or 18 hours
  MMP-9 expression by EAEC isolates: undetectable
S sonnei isolate; other time points and rifaximin concentrations
  MMP-9 in the S sonnei isolate: either undetectable or the isolate was not viable
S sonnei isolate; rifaximin 8 mg/L for 4 hours
  MMP-9 in the S sonnei isolate: detectable
C difficile isolates [1]; 110 C difficile isolates from multiple locations
  Isolates resistant to rifaximin, based on MIC values: 2.7%
C difficile isolates [1]; [4]
  MIC50: 0.0075 µg/mL
  MIC90: 0.015 µg/mL
C difficile isolates [2]; 1992 to 2007
  MIC50: 0.008 µg/mL
  MIC90: 0.015 µg/mL
C difficile isolates [2]
  Isolates with MIC values >2 μg/mL: 4%

Reference: patent US20200069664A1, “METHODS FOR TREATING INFECTION” (Salix Pharmaceuticals, Ltd, priority 2010, published 2020)
